Tested on: TNF-α mRNA
Assay: Real-time quantitative RT-PCR, TNF-α mRNA after CCI injury
Type: in vivo, rat
Conditions: single-dose 30 mg kg^-1 i.p.; ipsilateral cortex, 6 h after injury; P<0.05
Description: A previously described CCI injury procedure was utilized (Chen et al., 2003). Male Sprague-Dawley rats, which have body weight of 250-300 g, were anaesthetized with sodium pentobarbital (i.p.; 50 mgkg^−1; Rhone Merieux, Harlow, UK) and placed in a stereotaxic frame. A 5-mm craniotomy was performed over the left parietal cortex, centered on the coronal suture and 3 mm lateral to the sagittal suture. Considerable care was taken to avoid injury to the underlying dura. Injury was made using a pneumatic piston with a rounded metal tip (2.5 mm diameter) that was angled 22.5° C. to the vertical so that the tip was perpendicular with the brain surface at the centre of the craniotomy. A velocity of 4 ms^−1 and a deformation depth 2 mm below the dura were used. […] Body temperature was monitored throughout the surgery by a rectal probe; temperature was maintained at 37.0±0.5° C. using a heated pad. […] Testing after injury was as follows: (1) real-time quantitative RT-PCR analysis for TNF-α, IL-1β and IL-6 mRNA expression at 6 h post-injury (n=7 for each group); (2) FluoroJade B (FJB) staining, TNF-α, IL-1β and IL-6 immunohistochemistry, as well as ELISA at 24 h post-injury to assess degenerative neurons and to determine cytokine expression (n=7 for each group). […] Approximately 50 mg tissue was collected from the ipsilateral (injured) hemisphere and processed for real-time quantitative RT-PCR. […]

With O=c1cc(-c2ccccc2)oc2cc(O)c(O)c(O)c12 [baicalein] the “TNF-α mRNA level, % of level in vehicle-treated injured rats” value was 49%.

Source: patent US20100222421A1, “Usage of Baicalein in the Preparation of a Pharmaceutical Composition for the Treatment of Traumatic Brain Injury” (National Defense Medical Center, priority 2009, published 2010)
